The target in the assay is T1, human BACE1 (sproBACE1) (Homo sapiens, UniProt P56817).
T1 construct: sBACE1, corresponding to amino acids 1-454; made in house; host or cells: Sf9 insect cells (baculovirus), secreted into the medium
Description: BACE-1 Peptide Hydrolysis Assay (HTRF). The class given is biochemical. Conditions: read-out: BACE-1 Ki. The source says: A HindIII/PmeI fragment from pCDNA4-sBACE1myc/His was blunt ended using Klenow and subcloned into the Stu I site of PFASTBACI(A) (Invitrogen). A sBACE1mycHis recombinant bacmid was generated by transposition in DH10Bac cells (GIBCO/BRL). Subsequently, the sBACE1mycHis bacmid construct was transfected into sf9 cells using CellFectin (Invitrogen, San Diego, Calif.) in order to generate recombinant baculovirus. […] Five milliliters of high titer plaque purified sBACEmyc/His virus was used to infect 1 L of logarithmically growing sf9 cells for 72 hours. Intact cells were pelleted by centrifugation at 3000×g for 15 minutes. The supernatant, containing secreted sBACE1, was collected and diluted 50% v/v with 100 mM HEPES, pH 8.0. The diluted medium was loaded onto a Q-sepharose column. The Q-sepharose column was washed with Buffer A (20 mM HEPES, pH 8.0, 50 mM NaCl).
Proteins, were eluted from the Q-sepharose column with Buffer B (20 mM HEPES, pH 8.0, 500 mM NaCl). The protein peaks from the Q-sepharose column were pooled and loaded onto a Ni-NTA agarose column. The Ni-NTA column was then washed with Buffer C (20 mM HEPES, pH 8.0, 500 mM NaCl). Bound proteins were then eluted with Buffer D (Buffer C+250 mM imidazole).
Reactions were initiated by addition of substrate in a 5 μl aliquot resulting in a total volume of 25 μl. After 3 hr at 30° C. reactions were terminated by addition of an equal volume of 2× stop buffer containing 50 mM Tris-HCl pH 8.0, 0.5 M KF, 0.001% Brij-35, 20 μg/ml SA-XL665 (cross-linked allophycocyanin protein coupled to streptavidin; CIS-Bio International, France) (0.5 μg/well). Plates were shaken briefly and spun at 1200×g for 10 seconds to pellet all liquid to the bottom of the plate before the incubation.
Y=Bottom+(Top-Bottom)/(1+10^((LogEC50−X)*Hill Slope)); X is the logarithm of concentration of I, Y is the percent change in ratio and Y starts at bottom and goes to top with a sigmoid shape.
(In general: TR-FRET usually uses a lanthanide donor and a delayed reading to cut background.)

T1 sequence (P56817 22-454): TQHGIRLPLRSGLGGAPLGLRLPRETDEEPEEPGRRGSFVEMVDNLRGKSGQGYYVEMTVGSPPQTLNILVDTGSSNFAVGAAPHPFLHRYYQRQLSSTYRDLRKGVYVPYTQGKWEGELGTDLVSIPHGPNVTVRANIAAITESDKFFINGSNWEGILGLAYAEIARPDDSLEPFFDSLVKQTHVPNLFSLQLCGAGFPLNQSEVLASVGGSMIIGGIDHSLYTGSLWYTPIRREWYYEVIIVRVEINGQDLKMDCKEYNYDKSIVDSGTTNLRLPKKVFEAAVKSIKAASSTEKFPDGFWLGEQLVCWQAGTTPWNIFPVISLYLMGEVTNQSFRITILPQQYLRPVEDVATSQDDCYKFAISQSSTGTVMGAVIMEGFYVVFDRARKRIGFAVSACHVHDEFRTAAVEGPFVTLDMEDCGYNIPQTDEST

As usually defined, the Ki is the dissociation constant of the complex between target and ligand, obtained from inhibition or displacement. Regarding `CN1C(=N)NC(C)(c2cccc(N3CCC(C#N)C3)c2)CC1=O` (stereo not drawn), the Ki was less than 5 µM. The same measure for `COCC1CCCN1C(=O)c1cccc(CN2C(=N)NC(C)(c3cccc(-c4cccc(Cl)c4)c3)C2=O)c1` (stereo not drawn): less than 5 µM; for `COCC1CCCN1C(=O)c1cncc(CN2C(=N)NC(c3ccccc3)(C3CC3)C2=O)c1` (stereo not drawn): less than 5 µM; for `CN1C(=N)N[C@](C)(c2cc(-c3ccc(F)c(C#N)c3)nn2C)CC1=O`: less than 5 µM. To `CN1C(=N)N[C@@]2(CCCc3sc(-c4ccc(F)c(C#N)c4)cc32)CC1=O` belongs less than 5 µM; to `CN1C(=N)N[C@](CCc2ccccc2)(C[C@H]2CCC[C@@H](Nc3ccccc3)C2)C1=O`, less than 5 µM; to `CN1C(=N)N[C@](C)(C[C@H]2CCC[C@@H](Nc3ccc4ccccc4n3)C2)C1=O`, less than 5 µM.

Regarding `CCCN(CCC)C(=O)CCCCN1C(=N)NC(c2ccccc2)(c2ccccc2)C1=O`, the Ki was less than 5 µM. In the case of `N=C1NC(c2ccccc2)(c2cccc(-c3cccnc3)c2)C(=O)N1CC1CCNCC1` (stereo not drawn), the inhibitory constant (Ki) was less than 5 µM. To `N=C1NC(c2ccccc2)(c2ccccc2)C(=O)N1Cc1ccsc1` belongs less than 5 µM. The same measure for `CN1C(=N)N[C@](C)(c2cc(-c3cc(Br)cc(C#N)c3)cs2)CC1=O`: less than 5 µM; for `CN1C(=N)N[C@](C)(c2cc(-c3cc(Cl)cc(C#N)c3)cs2)[C@H](C2CC2)C1=O`: less than 5 µM. For the compound `C[C@H]1C(=O)N(C)C(=N)N[C@]1(C)c1cc(-c2cc(Cl)cc(C#N)c2)cs1`, the Ki is less than 5 µM. To `CN1C(=N)N[C@](C)(c2cc(-c3cccc(C#N)c3)c(Br)s2)CC1=O` belongs less than 5 µM; to `CCc1sc([C@@]2(C)NC(=N)N(C)C(=O)[C@@H]2CC)cc1-c1cccc(C#N)c1`, less than 5 µM. The same measure for `N=C1NC(c2ccccc2)(c2ccccc2)C(=O)N1Cc1ccoc1`: less than 5 µM; for `CN1C(=N)NC(C)(c2cc(-c3cccc(C#N)c3)cs2)C(CC=Cc2cccc(F)c2)C1=O` (stereo not drawn): less than 5 µM. To `CN1C(=N)NC(C)(c2cc(-c3cccc(C#N)c3)cs2)C(CC=Cc2ccc(F)cc2)C1=O` (stereo not drawn) belongs less than 5 µM.

For `CC(C)Oc1cccc([C@H]2C(=O)N(C)C(=N)N[C@]2(C)c2cc(-c3cccc(C#N)c3)cs2)c1`, the Ki was less than 5 µM. Take `CN1C(=N)NC(C)(c2cc(-c3cccc(C#N)c3)cs2)C(CCCc2ccccc2)C1=O` (stereo not drawn): the Ki was less than 5 µM. As to `CN1C(=N)NC(C)(c2cc(-c3cccc(C#N)c3)cs2)C(CCCc2ccccc2)(n2cccn2)C1=O` (stereo not drawn), the Ki is less than 5 µM.

As for `CN1C(=N)NC(C)(c2cc(-c3cccc(C#N)c3)cs2)C(CCCc2ccncc2)C1=O` (stereo not drawn), the Ki is less than 5 µM. `C[C@@]1(c2cc(-c3cccc(C#N)c3)cs2)CC(=O)N(Cc2ccncc2)C(=N)N1`: the Ki is less than 5 µM.

On to `CC1(c2cccc(-c3cccc(Cl)c3)c2)NC(=N)N(CC2CCN(C(=O)Cc3ccccc3)C2)C1=O` (stereo not drawn), for which the Ki is less than 5 µM. To `CC1(c2cccc(-c3cccc(Cl)c3)c2)NC(=N)N(CC2CCN(S(C)(=O)=O)C2)C1=O` (stereo not drawn) belongs less than 5 µM; to `CCC[C@H]1C(=O)N(C)C(=N)N[C@]1(C)c1cccc(-c2cccc(C#N)c2)c1`, less than 5 µM; to `CN1C(=N)N[C@](C)(c2scc(C#N)c2Cl)CC1=O`, less than 5 µM. With `Cc1cccc(-c2cccc(C3(C4CC4)NC(=N)N(C)C3=O)c2)n1` (stereo not drawn), the Ki is less than 5 µM. To `COc1cncc(-c2csc(C3(C4CC4)NC(=N)N(C)C3=O)c2)c1` (stereo not drawn) belongs less than 5 µM; to `COc1ccc(F)c(-c2cccc(C3(C)CON(C)C(=N)N3)c2)c1` (stereo not drawn), less than 5 µM; to `CN1C(=N)N[C@](C)(c2cc(Br)c(-c3cncc(C#N)c3)s2)CC1=O`, less than 5 µM. Regarding `CN1C(=N)NC(c2cccc(-c3cncc(Br)c3)c2)(C2(C)CC2)C1=O` (stereo not drawn), the Ki was less than 5 µM. The same measure for `CN1C(=N)NC(C)(c2cccc(-c3cncc(F)c3)c2)C1=O` (stereo not drawn): less than 5 µM; for `CN1CCC(CN2C(=N)NC(C)(c3cccc(-c4cccc(Cl)c4)c3)C2=O)C1` (stereo not drawn): less than 5 µM; for `CN1C(=N)NC(c2ccc(-c3ccc(F)c(C#N)c3)s2)(C2CC2)CC1=O` (stereo not drawn): less than 5 µM. The same measure for `CN1C(=N)N[C@](C)(c2cc(-c3ccc(F)c(C#N)c3)cs2)[C@@H](C2CC2)C1=O`: less than 5 µM. For `CN1C(=N)N[C@](C)(c2cc(-c3ccc(F)c(C#N)c3)cs2)[C@H](C2CCC2)C1=O`, the Ki was less than 5 µM. To `CN1C(=N)N[C@](C)(c2cc(-c3cc(C#N)cc(C#N)c3)cs2)CC1=O` belongs less than 5 µM; to `CN1C(=N)NC(C)(c2cccc(-c3cc(Cl)ccc3CCO)c2)C1=O` (stereo not drawn), less than 5 µM; to `CN1C(=N)NC(C)(c2cccc(-c3cc(Cl)ccc3CCOC=O)c2)C1=O` (stereo not drawn), less than 5 µM. As to `CCCN(CCC)C(=O)c1ncc(CN2C(=N)NC(c3ccccc3)(c3ccccc3)C2=O)[nH]1`, the Ki is less than 5 µM. To `CN1C(=N)N[C@@](c2cccc(-c3cccc(CO)c3)c2)(C2CC2)C1=O` belongs less than 5 µM.

For `CN1C(=N)N[C@](CCC2CCCCC2)(C[C@H]2CCC[C@H](N[C@H]3CCNC3=O)C2)C1=O`, the inhibitory constant (Ki) was less than 5 µM. The same measure for `CN1C(=N)N[C@](CCC2CCCCC2)(C[C@H]2CCC[C@H](NCCc3ccccc3)C2)C1=O`: less than 5 µM; for `CN1C(=N)N[C@](CCC2CCCCC2)(C[C@H]2CCC[C@@H](N(C)C)C2)C1=O`: less than 5 µM. In the case of `CN1C(=N)N[C@](C)(c2ccnc(-c3cccnc3F)c2)[C@@H](c2ccc(C3CC3)cc2)C1=O`, the Ki is less than 5 µM.

Take `CN1C(=N)N[C@](CCc2ccccc2)(C[C@H]2CCC[C@@H](NC3CCCC3)C2)C1=O`: the Ki is less than 5 µM. The same measure for `CN1C(=N)N[C@@](CCC2CCCCC2)(C[C@H]2CCC[C@@H](Nc3ccc4cccc(Cl)c4n3)C2)C1=O`: less than 5 µM; for `C[C@@]1(c2ccc3sccc3c2)CC(=O)N(CCO)C(=N)N1`: less than 5 µM; for `CN1C(=N)N[C@](C)(c2ccc3nn(CC4CCCCC4)cc3c2)CC1=O`: less than 5 µM. To `CN1C(=N)N[C@](C)(c2ccc(F)cc2F)[C@@H](c2ccc(N3CCCS3(=O)=O)cc2)C1=O` belongs less than 5 µM; to `CN1C(=N)N[C@](C)(c2ccnc(-c3cccnc3F)c2)CC1=O`, less than 5 µM; to `CN1C(=N)N[C@](C)(c2ccc3c(c2)c(Br)cn3C)CC1=O`, less than 5 µM.

Take `CN1C(=N)N[C@](C)(c2cccc(-c3ccc4scnc4c3)c2)CC1=O`: the Ki was less than 5 µM. To `CN1C(=N)N[C@](C)(c2cc(Br)co2)CC1=O` belongs less than 5 µM; to `CCc1csc([C@]2(C)CC(=O)N(C)C(=N)N2)c1`, less than 5 µM. With `Cc1cc(F)ccc1[C@]1(C)CC(=O)N(C)C(=N)N1`, the inhibition constant Ki is less than 5 µM. To `COCCN1C(=N)N[C@](C)(c2ccc3sccc3c2)CC1=O` belongs less than 5 µM; to `CC(C)CC(=O)Nc1cccc(CN2C(=N)NC(c3ccccc3)(c3ccccc3)C2=O)c1`, less than 5 µM. The same measure for `N=C1NC(c2ccccc2)(c2ccccc2)C(=O)N1Cc1cccc(NC(=O)CC2CCCC2)c1`: less than 5 µM; for `COc1cccc(-c2cccc(C3(C)CON(C)C(=N)N3)c2)c1` (stereo not drawn): less than 5 µM; for `COc1ccccc1C(=O)N[C@@H]1CCC[C@H](C[C@@]2(CCC3CCCCC3)NC(=N)N(C)C2=O)C1`: less than 5 µM.

In the case of `CN1C(=N)NC(C)(c2cccc(-c3cc(Cl)ccc3CNC(=O)c3ccncc3)c2)C1=O` (stereo not drawn), the Ki is less than 5 µM. To `CN1C(=N)NC(C)(c2cccc(-c3cc(Cl)ccc3CNC(=O)c3ccnnc3)c2)C1=O` (stereo not drawn) belongs less than 5 µM.

Regarding `N=C1NC(c2ccccc2)(c2ccccc2)C(=O)N1CC1CCN(C(=O)C2(c3ccccc3)CC2)CC1`, the Ki is less than 5 µM. The same measure for `CN1C(=N)N[C@](C)(c2cccc(N3CCCC3)c2)CC1=O`: less than 5 µM; for `CCCn1ncc2ccc([C@]3(C)CC(=O)N(C)C(=N)N3)cc21`: less than 5 µM. Turning to `CN1C(=N)N[C@](C)(c2cccc(N3CCCCC3)c2)CC1=O`, the Ki is less than 5 µM. For the compound `Cc1cc([C@]2(C)CC(=O)N(C)C(=N)N2)sc1-c1cccc(OC(F)(F)F)c1`, the Ki was less than 5 µM. The same measure for `CN1C(=N)N[C@](C)(c2cc(-c3cncnc3)cs2)CC1=O`: less than 5 µM; for `CN1C(=N)N[C@](C)(c2csc3c(-c4ccccc4)cccc23)CC1=O`: less than 5 µM; for `CN1C(=N)N[C@](C)(c2cc(-c3cccnc3)c3sccc3c2)CC1=O`: less than 5 µM. The same measure for `COc1ccc([C@H]2C(=O)N(C)C(=N)N[C@]2(C)c2cncs2)cc1`: less than 5 µM; for `CN1C(=N)N[C@](C)(c2cnn(-c3cccc(I)c3)c2)CC1=O`: less than 5 µM. As to `CCC[C@H]1C(=O)N(C)C(=N)N[C@]1(C)c1cccc(I)c1`, the Ki is less than 5 µM.

Source of the values: patent US8183252B2, “Heterocyclic aspartyl protease inhibitors” (Schering Corporation, priority 2007, dated 2012).
